“Also recorded” adds a separate entry of the source.
Columns and labels:
[1] = tested on: isolated SGNs and denervated organ of Corti; assay: Afferent synaptogenesis in co-culture of isolated SGNs and denervated organ of Corti; assay type: cell-based, mouse; conditions: P4/5 CBA/CaJ co-culture 6 days, amitriptyline 0.5 uM, vs untreated controls
Experimental: FIGS. 4A-B show amitriptyline induced cochlear afferent synaptogenesis. Isolated SGNs and denervated organ of Corti were extracted from P4/5 CBA/CaJ cochlea, the co-cultured for 6 days (see Brugeaud et al. (2014) Dev Neurobiol. April; 74(4):457-66 and Tong et al. (2013) J Assoc Res Otolaryngol. 14(3):321-9 for detailed methods). In some co-cultured explants, amitriptyline (AT; 0.5 uM) was added (4A, 4B). After culture, explants were fixed and immunostained with antibodies against neurofilament (green), CtBP2 (blue) and PSD-95 (red). Confocal images were taken in the IHC region. Newly generated afferent synapses were identified by juxtaposed CtBP2/PSD-95 puncta (yellow arrows).
The afferent innervation of hair cells is removed by physical ablation. At postnatal day four to six (P4-P6), the cochlea is dissected and transferred to Petri dishes. The inner and outer hair cells and surrounding supporting cells of the organ of Corti are separated from the SGN at the greater epithelial ridge with a surgical micro-blade, to obtain an intact sensory epithelium devoid of neurons. […] Formation of new synapses and growth of the fibers to contact hair cells is assessed by immunohistochemistry. […]

[2] = tested on: IHC synapses and spiral ganglion cells; assay: Cochlear synapse and ganglion cell counts in vivo after synaptopathic noise exposure; design: species or system CBA/CaJ mice; conditions: for synapses / cochlear synaptic counts: one year (52 wk) after synaptopathic noise exposure
Experimental: (§1) Animals: Experiments were carried out in CBA/CaJ mice. CBA/CaJ is a useful reference for studies of both noise-induced and age-related hearing loss and to cochlear injury. […] J Assoc Res Otolaryngol. 2014 October; 15(5):721-38). With respect to aging, after normalizing for cochlear place and relative lifespan, the pace of age-related threshold elevation and SGN loss in CBA/CaJ looks remarkably like that seen in human data (Sergeyenko et al. (2013)). Thus, the strain is particularly appropriate to provide the optimization of bioassays and treatments for application to the human.
(§2) Noise Exposure: Noise exposure stimuli were generated by a waveform generator (Tucker-Davis WG1), bandpass filtered with >60 dB/octave slope (Frequency Devices), amplified (Crown D-75) and delivered (JBL compression driver) through an exponential horn extending into a small, reverberant exposure chamber. Exposures were delivered to awake animals held within small cells of a subdivided cage, one animal/cell, suspended directly below the horn of the sound-delivery loudspeaker. Noise calibration to target SPL was performed immediately before each exposure session. Sound pressure levels varied by <1 dB across all cells (Kujawa et al. (2006); Kujawa et al. (2009)).
Cochlear Tissue Processing and Analysis: Techniques for cochlear fixation, dissecting and immunostaining are described in prior publications, as are techniques for quantification of pre- and post-synaptic structures in highpower confocal z-stacks (Kujawa et al. (2009); Sergeyenko et al. (2013)). Briefly, deeply anesthetized mice were intracardially perfused, both cochleae were extracted, and the round and oval windows opened to allow intra-labyrinthine perfusion of the same fixative. One cochlea was processed for immunostained cochlear whole mounts and the other for plastic embedding. We triple stained for pre-synaptic ribbons (CtBP2), post-synaptic glutamate receptors (GluA2) and/or cochlear nerve terminals (Na+K+ATPase); myosin VIIA aided hair cell visualization. […] High-power, confocal image stacks were obtained at evenly spaced locations along the cochlear spiral, including regions of lesion focus. Given the stereotyped sectioning angle, these locations correspond roughly to the 6, 12, 22, 32, 45 and 64 kHz regions. At each locus, high-NA (1.3) objectives were used to obtain a complete confocal z-stack through the synaptic zones of all IHCs and OHCs. In each field, hair cells were counted under DIC optics, and expressed pre- and post-synaptic elements on a per hair cell basis. For afferent innervation, synaptic ribbons were counted in IHC areas, and percentages of ribbons with closely apposing glutamate receptor patches or terminals assessed, aided by the use of Amira software to enable a true 3-D analysis of the volumes of immunostained structures, and custom software to isolate the voxel space around each structure of interest.
For quantification of spiral ganglion cells, cochleae were additionally postfixed, decalcified and osmicated and embedded in EPON in a stereotyped orientation. Plastic-embedded, osmium-stained sections (10 μm) were cut in a roughly horizontal plane parallel to the modiolus. In each case, ganglion cell counts were made in the section precisely in the middle of each half turn, where the cutting angle is perpendicular to the spiral of Rosenthal's canal, at regions corresponding to the synapse counts. In each selected section, the area of Rosenthal's canal is traced, the number of ganglion cells within was counted, including only those cells with a visible nucleus and nucleolus, and the cell density is computed (cells/10,000 μm^2). All morphological analyses were performed by an individual having no knowledge of animal age or treatment, with subsets double counted by a second individual as a check for consistency. […]

cochlear function = assay: Cochlear function (ABR Wave 1, DPOAE) in vivo after synaptopathic noise exposure; design: species or system CBA/CaJ mice; conditions: vs saline-treated controls; for ABR Wave 1 amplitudes (neural response amplitudes): 52 wk / one year post noise
Experimental: as §1, §2
Cochlear Function: Detailed techniques have been described in previous publications (Kujawa et al. (2006); Kujawa et al. (2009); Sergeyenko et al. (2013)). […]
Effects of noise on the cochlea and its interaction with age were assessed physiologically using outer hair cell-based distortion product otoacoustic emissions (DPOAEs) and neural-based auditory brainstem responses (ABRs, specifically, wave 1). Response thresholds and suprathreshold response growth functions were recorded in ketamine/xylazine-anesthetized mice. DPOAEs were measured in response to f1 and f2 primaries (f2/f1=1.2, f2=ABR test frequencies; L2=L1−10 dB). […] ABRs were recorded with 5 ms tone-pips (0.5 msec rise/fall, alternating polarity) for the same range of frequencies. Wave 1 thresholds and wave peak ratios were determined by custom offline analysis routines.

Spiral ganglion neurons = assay: Spiral ganglion neurite growth in cultured explants; assay type: cell-based, mouse; conditions: P4 CBA/CaJ SGN explants, two days culture, neurofilament stain; imipramine 1 uM or 5 uM, BDNF 50 ng/ml; vs control
Experimental: Spiral ganglion neurons were isolated from P4 CBA/CaJ mouse cochlea and cultured with DMEM/F12 supplemented with N2 and B27 in a 37° C. incubator with 5% CO2 (control conditions)(FIG. 3A). For drug treatment, BDNF (50 ng/ml) (FIG. 3C) or imipramine (1 uM or 5 uM)(FIG. 3B or FIG. 3D) was added. Two days after culture, explants were immunostained with a neurofilament antibody.

Molecule	newly generated afferent synapses (juxtaposed CtBP2/PSD-95 puncta), synapse counts [1]	newly generated afferent synapses (juxtaposed CtBP2/PSD-95 puncta), synapse counts ([1]; listed as AT)	period of post-drug efficacy ([2]; initial results, compared to short-lived benefit of exogenously-applied neurotrophins)	synapses / cochlear synaptic counts ([2]; vs saline-treated controls)	synapses / cochlear synaptic counts ([2]; vs saline-treated controls, listed as AT)	ganglion cell counts ([2]; one year post excitotoxic noise, vs saline-treated controls)	synapses ([2]; short post-exposure times, vs saline treated controls)	effects with a single dose of drug ([2]; single dose, in vivo (FIG. 6))	ABR Wave 1 amplitudes (neural response amplitudes) (cochlear function)	ABR Wave 1 amplitudes (neural response amplitudes) (cochlear function; listed as AT)	DPOAE amplitudes (cochlear function; 52 wk post noise)	spiral ganglion neurite growth (Spiral ganglion neurons)
CN(C)CCC=C1c2ccccc2CCc2ccccc21 [amitriptyline]	synaptogenesis; also recorded: new afferent synapses are generated	greater in AT-treated than in untreated controls	long period of post-drug efficacy	cochlear synaptic and ganglion cell counts were greater	persisting to at least one year after synaptopathic exposure	ganglion cell counts were greater	more synapses than saline treated controls	could be seen even with a single dose of drug	neural response amplitudes were larger	larger in AT-treated ears	not DPOAE amplitudes (5C) were larger	–
CN(C)CCCN1c2ccccc2CCc2ccccc21 [imipramine]	–	–	–	–	–	–	–	–	–	–	–	promoted spiral ganglion neurite growth in a dose-dependent manner; also recorded: dose-responsive dendritic sprouting
brain derived neurotrophic factor (protein, UniProt P23560 19-247, looked up) Neurotrophic factor BDNF …: APMKEANIRGQGGLAYPGVRTHGTLESVNGPKAGSRGLTSLADTFEHVIEELLDEDQKVRPNEENNKDADLYTSRVMLSSQVPLEPPLLFLLEEYKNYLDAANMSMRVRRHSDPARRGELSVCDSISEWVTAADKKTAVDMSGGTVTVLEKVPVSKGQLKQYFYETKCNPMGYTKEGCRGIDKRHWNSQCRTTQSYVRALTMDSKKRIGWRFIRIDTSCVCTLTIKRGR	–	–	–	–	–	–	–	–	–	–	–	promoted neurite outgrowth

Source: patent US20190022101A1, “Treating Cochlear Synaptopathy” (Massachusetts Eye and Ear Infirmary, priority 2016, published 2019)
